Tests used:
[1] = target: His-tagged KRAS G12D protein (Homo sapiens (Human), UniProt P01116, G12D); experiment: KRAS G12D TR-FRET Assay; format: binding; details: read-out: KRAS G12D Binding IC50
Procedure: Compounds of interest were prepared in a dose-response titration in DMSO, and 80 nL were added via Labcyte Echo to each well of a 384-well plate (Perkin Elmer 6008280). The His-tagged KRAS G12D protein (Amgen) was diluted to 20 nM in Assay Buffer (20 mM HEPES, pH 7.4, 10 mM MgCl2, 50 mM NaCl, 0.1% BSA, 0.01% Tween-20, 10 μM GDP) and 2 μL was added to the appropriate wells of the 384-well plate. The plate was incubated for 30 minutes at room temperature. Biotinylated KRPep-2d substrate (Amgen) was diluted to 20 nM in Assay Buffer and 2 μL was added to all wells and incubated for 1 hour at room temperature. Detection Reagent (0.4 nM LANCE Eu-W1024 Anti-6×His (Perkin Elmer AD0401), 5 nM streptavidin-d2 (Cisbio 610SADLA)) was prepared in Assay Buffer, then 4 μL was added to the plate and incubated for 1 hour at room temperature. Plates were read using PerkinElmer EnVision (ex: 320 nm, em1: 665 nm, em2: 615 nm) and em1/em2 data was used to generate curve fits using a 4-parameter logistic model to calculate IC50 values.

[2] = target: GDP-bound KRAS protein (aa 1-169), containing both G12D and C118A amino acid substitutions (Homo sapiens (Human), UniProt P01116, C118A/G12D); experiment: KRAS G12D Coupled Nucleotide Exchange Assay; format: biochemical; details: read-out: KRAS G12D Coupled Exchange IC50
Procedure: KRAS G12D Coupled Nucleotide Exchange Assay
Following compound pre-incubation, purified SOS protein (aa 564-1049) and GTP (Roche 10106399001) were added to the assay wells and incubated for an additional 30 min. To determine the extent of inhibition of SOS-mediated nucleotide exchange, purified GST-tagged cRAF (aa 1-149), nickel chelate AlphaLISA acceptor beads (PerkinElmer AL108R), and AlphaScreen glutathione donor beads (PerkinElmer 6765302) were added to the assay wells and incubated for 10 minutes. The assay plates were then read on a PerkinElmer EnVision Multilabel Reader, using AlphaScreen® technology, and data were analyzed using a 4-parameter logistic model to calculate IC50 values.

Chain of His-tagged KRAS G12D protein (P01116 other isoform, or with tags, fused parts or gaps G12D): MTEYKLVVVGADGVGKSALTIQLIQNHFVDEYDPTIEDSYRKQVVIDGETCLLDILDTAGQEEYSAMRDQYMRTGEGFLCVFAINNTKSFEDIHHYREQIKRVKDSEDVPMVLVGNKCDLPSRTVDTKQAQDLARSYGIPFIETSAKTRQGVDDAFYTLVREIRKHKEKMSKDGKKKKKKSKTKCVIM
Chain of GDP-bound KRAS protein (aa 1-169), containing both G12D and C118A amino acid substitutions (P01116 other isoform, or with tags, fused parts or gaps G12D/C118A): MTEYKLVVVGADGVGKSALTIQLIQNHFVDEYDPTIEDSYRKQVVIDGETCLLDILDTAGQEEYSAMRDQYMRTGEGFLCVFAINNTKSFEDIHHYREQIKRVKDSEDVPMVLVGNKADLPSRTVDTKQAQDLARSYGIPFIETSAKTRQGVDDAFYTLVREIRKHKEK

| SMILES | IC50 [1] [nM] | IC50 [2] [nM] |
| --- | --- | --- |
| Cc1cc2[nH]ncc2c2c1CCCCO[C@@H](C)[C@H]1CN(CCO1)c1nc(OC[C@@]34CCCN3C[C@H](F)C4)nc3c(F)c-2ncc13 [Example 242, (16S,17R)-30-fluoro-24-(((2R,7aS)-2-fluorotetrahydro-1H-pyrrolo[1,2-a]pyrrol-7a(5H)-yl)methoxy)-9,16-dimethyl-15,18-dioxa-5,6,21,23,25,29-hexaazahexacyclo[24.3.1.1~17,21~.0~2,10~.0~3,7~.0~22,27~]hentriaconta-1(30),2,4,7,9,22,24,26,28-nonaene] | 1140 | 1050 |
| Cc1nc2c3cnc(c(F)c3n1)-c1cc(O)cc3ccc(F)c(c13)CCCC(=O)N[C@]1(C)CCCN2C1.O=C(O)C(F)(F)F [Example 14, (15R)-22,31-Difluoro-27-hydroxy-8,15-dimethyl-3,7,9,11,16-pentaazahexacyclo[19.7.1.1˜2,6˜.1˜11,15˜.0˜5,10˜.0˜25,29˜]hentriaconta-1(28),2(31),3,5,7,9,21,23,25(29),26-decaen-17-one 2,2,2-trifluoroacetate] | 344 | 296 |
| COc1nc2c3cnc(c(F)c3n1)-c1cc(O)cc3ccc(F)c(c13)CCCC(=O)N[C@]1(C)CCCN2C1 [Example 6, (15R)-22,31-Difluoro-27-hydroxy-8-methoxy-15-methyl-3,7,9,11,16-pentaazahexacyclo[19.7.1.1˜2,6˜.1˜11,15˜.0˜5,10˜.0˜25,29˜]hentriaconta-1(28),2(31),3,5,7,9,21,23,25(29),26-decaen-17-one bis(2,2,2-trifluoroacetate)] | 154 | 125 |
| CN(C)CC1(COc2nc3c4cc(F)c(c(F)c4n2)-c2c(c(Cl)cc4[nH]ncc24)CCCOC(=O)O[C@@H]2COCCN3C2)CC1 [Example 306, m-(26S)-18-chloro-4-((1-((dimethylamino)methyl)cyclopropyl)methoxy)-9,32-difluoro-23,25,28-trioxa-1,3,5,14,15-pentaazahexacyclo[24.4.1.1~6,10~.0~2,7~.0~11,19~.0~12,16~]dotriaconta-2,4,6,8,10(32),11,13,16,18-nonaen-24-one] | 695 | 450 |
| CN(C)CC1(COc2nc3c4cnc(c(F)c4n2)-c2c(c(Cl)cc4[nH]ncc24)CCCOC(=O)O[C@@]2(C)COCCN3C2)CC1 [Example 332, (26R)-18-chloro-4-((1-((dimethylamino)methyl)cyclopropyl)methoxy)-32-fluoro-26-methyl-23,25,28-trioxa-1,3,5,9,14,15-hexaazahexacyclo[24.4.1.1~6,10~.0~2,7~.0~11,19~.0~12,16~]dotriaconta-2,4,6,8,10(32),11,13,16,18-nonaen-24-one] | 3240 | 2110 |
| [2H]C([2H])([2H])[C@]12COCCN(C1)c1nc(OC[C@@]34CCCN3C[C@H](F)C4)nc3c(F)c(ncc13)-c1c(c(C)cc3[nH]ncc13)CCCOC(=O)O2 [Example 351, (26R)-32-fluoro-4-(((2R,7aS)-2-fluorotetrahydro-1H-pyrrolo[1,2-a]pyrrol-7a(5H)-yl)methoxy)-18-methyl-26-(~2~H_3_)methyl-23,25,28-trioxa-1,3,5,9,14,15-hexaazahexacyclo[24.4.1.1~6,10~.0~2,7~.0~11,19~.0~12,16~]dotriaconta-2,4,6,8,10(32),11,13,16,18-nonaen-24-one] |  | 149 |
| Cc1cc2[nH]ncc2c2c1CCCCO[C@H](C)[C@H]1CN(CCO1)c1nc(OC[C@@]34CCCN3C[C@H](F)C4)nc3c(F)c-2ncc13 [Example 241, (16R,17R)-30-fluoro-24-(((2R,7aS)-2-fluorotetrahydro-1H-pyrrolo[1,2-a]pyrrol-7a(5H)-yl)methoxy)-9,16-dimethyl-15,18-dioxa-5,6,21,23,25,29-hexaazahexacyclo[24.3.1.1~17,21~.0~2,10~.0~3,7~.0~22,27~]hentriaconta-1(30),2,4,7,9,22,24,26,28-nonaene] | 1290 | 1410 |
| Cc1c2ncc3c(nc(OCC45CCC(CC4)O5)nc13)N1CCC[C@](C)(C1)NC(=O)CCCc1c(F)ccc3cc(O)cc-2c13 [Example 23, (15R)-22-Fluoro-27-hydroxy-15,31-dimethyl-8-((1r,4r)-7-oxabicyclo[2.2.1]heptan-1-ylmethoxy)-3,7,9,11,16-pentaazahexacyclo[19.7.1.1˜2,6˜.1˜11,15˜.0˜5,10˜.0˜25,29˜]hentriaconta-1(28),2(31),3,5,7,9,21,23,25(29),26-decaen-17-one] | 160 | 111 |
| Cn1ncc2cc(Cl)c3c(c21)-c1ncc2c(nc(OC[C@@]45CCCN4C[C@H](F)C5)nc2c1F)N1CCOC[C@H](C1)OC(=O)OCCC3 [Example 364, (26S)-18-chloro-32-fluoro-4-(((2R,7aS)-2-fluorotetrahydro-1H-pyrrolo[1,2-a]pyrrol-7a(5H)-yl)methoxy)-13-methyl-23,25,28-trioxa-1,3,5,9,13,14-hexaazahexacyclo[24.4.1.1~6,10~.0~2,7~.0~11,19~.0~12,16~]dotriaconta-2,4,6,8,10(32),11,14,16,18-nonaen-24-one] | 102 | 20 |
| [2H]C([2H])([2H])[C@]12COCCN(C1)c1nc(OC[C@@]34CCCN3C[C@H](F)C4)nc3c(F)c(ncc13)-c1c(c(Cl)cc3[nH]ncc13)CCCOC(=O)O2 [Example 354, (26R)-18-chloro-32-fluoro-4-(((2R,7aS)-2-fluorotetrahydro-1H-pyrrolo[1,2-a]pyrrol-7a(5H)-yl)methoxy)-26-(~2~H_3_)methyl-23,25,28-trioxa-1,3,5,9,14,15-hexaazahexacyclo[24.4.1.1~6,10~.0~2,7~.0~11,19~.0~12,16~]dotriaconta-2,4,6(32),7,9,11,13,16,18-nonaen-24-one] |  | 531 |

Further molecules by falling IC50 [1], results first:

| IC50 [1] [nM] | IC50 [2] [nM] | SMILES |
| --- | --- | --- |
| 90 | 105 | O=C1OCCCc2c(Cl)cc3[nH]ncc3c2-c2ncc3c(nc(O[C@@H]4CCOC4)nc3c2F)N2CCOC[C@H](C2)O1 [Example 197, (26S)-18-chloro-32-fluoro-4-((3R)-tetrahydro-3-furanyloxy)-23,25,28-trioxa-1,3,5,9,14,15-hexaazahexacyclo[24.4.1.1~6,10~.0~2,7~.0~11,19~.0~12,16~]dotriaconta-2,4,6,8,10(32),11,13,16,18-nonaen-24-one] |
| 79 | 44 | CN1C(=O)OCCCc2c(Cl)cc3[nH]ncc3c2-c2ncc3c(nc(OC[C@@]45CCCN4C[C@H](F)C5)nc3c2F)N2CCOC[C@@H]1C2 [Example 178, (26S)-18-chloro-32-fluoro-4-(((2R,7aS)-2-fluorotetrahydro-1H-pyrrolo[1,2-a]pyrrol-7a(5H)-yl)methoxy)-25-methyl-23,28-dioxa-1,3,5,9,14,15,25-heptaazahexacyclo[24.4.1.1~6,10~.0~2,7~.0~11,19~.0~12,16~]dotriaconta-2,4,6,8,10(32),11,13,16,18-nonaen-24-one] |
| 77 | 65 | Fc1c2ncc3c(nc(OC[C@@]45CCCN4C[C@H](F)C5)nc13)N1CCC[C@H](C1)Cn1cc(nn1)CCc1c(Cl)cc3[nH]ncc3c1-2 [Example 146] |
| 74 | 55 | N#Cc1cc(Cl)c2c(c1)-c1ncc3c(nc(OC[C@@]45CCCN4C[C@H](F)C5)nc3c1F)N1CCOC[C@H](C1)OC(=O)OCCC2 [Example 216] |
| 63 | 39 | Fc1c2ncc3c(nc(OC[C@@]45CCCN4C[C@H](F)C5)nc13)N1CCO[C@@H](CCOCCCc3c(Cl)cc4[nH]ncc4c3-2)C1 [Example 224] |
| 61 | 42 | O=C1OCCCCc2c(Cl)cc3[nH]ncc3c2-c2ncc3c(nc(OC[C@@]45CCCN4C[C@H](F)C5)nc3c2F)N2CCOC[C@H](C2)O1 [Example 324, (27S)-18-chloro-33-fluoro-4-(((2R,7aS)-2-fluorotetrahydro-1H-pyrrolo[1,2-a]pyrrol-7a(5H)-yl)methoxy)-24,26,29-trioxa-1,3,5,9,14,15-hexaazahexacyclo[25.4.1.1~6,10~.0~2,7~.0~11,19~.0~12,16~]tritriaconta-2,4,6,8,10(33),11,13,16,18-nonaen-25-one] |
| 61 | 57 | Cc1cc2[nH]ncc2c2c1CCCCC(=O)OC1CC[C@@H]3CC[C@H]1N3c1nc(OC[C@@]34CCCN3C[C@H](F)C4)nc3c(F)c-2ncc13 (racemic) [Example 86] |
| 50 | 35 | O=C1OCCc2c(Cl)cc3[nH]ncc3c2-c2ncc3c(nc(OC[C@@]45CCCN4C[C@H](F)C5)nc3c2F)N2CCOC[C@]3(C2)C[C@@H](C3)O1 [Example 317, (1S,3S)-10-chloro-33-fluoro-24-(((2R,7aS)-2-fluorotetrahydro-1H-pyrrolo[1,2-a]pyrrol-7a(5H)-yl)methoxy)-4,6,30-trioxa-13,14,19,23,25,27-hexaazaheptacyclo[25.4.1.1~1,3~.1~18,22~.0~9,17~.0~12,16~.0~21,26~]tetratriaconta-9,11,14,16,18(33),19,21,23,25-nonaen-5-one] |

Source: US20240294551A1 (AMGEN INC., priority 2022, published 2024)
